Source: patent US20170067909A1, “ASSAY-READY RECOMBINANT CELLS TRANSIENTLY OVEREXPRESSING GENES ENCODING DRUG TRANSPORTER PROTEINS AND/OR DRUG METABOLIZING ENZYMES” (Corning Incorporated, priority 2012, published 2017)
Read-outs that look alike come from different tables or passages of the source.

Tests used:
OATP1B1*1a [1] = target: T1, OATP1B1*1a (Homo sapiens, UniProt Q9Y6L6); details: read-out: Km, Literature Report; HEK293 cells; P. Sharma, et al. Xenobiotica 40:24. 2010; cited from earlier work
T1 sequence (Q9Y6L6 1-691): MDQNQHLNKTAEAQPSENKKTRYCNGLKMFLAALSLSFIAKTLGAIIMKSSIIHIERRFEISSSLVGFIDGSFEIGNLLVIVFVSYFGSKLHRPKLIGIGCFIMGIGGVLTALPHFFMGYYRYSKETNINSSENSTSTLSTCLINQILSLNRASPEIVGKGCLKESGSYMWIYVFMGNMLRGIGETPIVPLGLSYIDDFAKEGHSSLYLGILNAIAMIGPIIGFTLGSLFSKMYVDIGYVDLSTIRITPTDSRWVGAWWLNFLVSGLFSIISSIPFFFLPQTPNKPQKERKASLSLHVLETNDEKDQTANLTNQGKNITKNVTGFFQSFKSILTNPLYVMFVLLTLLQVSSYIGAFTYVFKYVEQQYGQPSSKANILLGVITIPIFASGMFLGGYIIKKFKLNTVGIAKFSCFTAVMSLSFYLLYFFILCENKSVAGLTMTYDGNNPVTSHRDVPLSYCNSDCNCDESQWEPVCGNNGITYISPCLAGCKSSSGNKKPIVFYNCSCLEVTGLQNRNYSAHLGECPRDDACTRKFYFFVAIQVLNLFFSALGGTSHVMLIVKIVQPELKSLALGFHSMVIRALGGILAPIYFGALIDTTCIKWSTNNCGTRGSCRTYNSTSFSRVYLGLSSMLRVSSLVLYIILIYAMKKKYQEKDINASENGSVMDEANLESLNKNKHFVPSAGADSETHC

OATP1B1 = target: T2, OATP1B1 (Homo sapiens, UniProt Q9Y6L6)
T2 sequence (Q9Y6L6 1-691): T1 sequence (Q9Y6L6 1-691)

OATP1B1*1a [2] = target: T1, OATP1B1*1a; details: read-out: Km, SLC Transporter Cells; substrate 0.25 to 40 μM, incubation 1 min
rat Oatp1b2 = target: T3, rat Oatp1b2 (Rattus norvegicus, UniProt Q9QZX8)
T3 sequence (Q9QZX8 1-687): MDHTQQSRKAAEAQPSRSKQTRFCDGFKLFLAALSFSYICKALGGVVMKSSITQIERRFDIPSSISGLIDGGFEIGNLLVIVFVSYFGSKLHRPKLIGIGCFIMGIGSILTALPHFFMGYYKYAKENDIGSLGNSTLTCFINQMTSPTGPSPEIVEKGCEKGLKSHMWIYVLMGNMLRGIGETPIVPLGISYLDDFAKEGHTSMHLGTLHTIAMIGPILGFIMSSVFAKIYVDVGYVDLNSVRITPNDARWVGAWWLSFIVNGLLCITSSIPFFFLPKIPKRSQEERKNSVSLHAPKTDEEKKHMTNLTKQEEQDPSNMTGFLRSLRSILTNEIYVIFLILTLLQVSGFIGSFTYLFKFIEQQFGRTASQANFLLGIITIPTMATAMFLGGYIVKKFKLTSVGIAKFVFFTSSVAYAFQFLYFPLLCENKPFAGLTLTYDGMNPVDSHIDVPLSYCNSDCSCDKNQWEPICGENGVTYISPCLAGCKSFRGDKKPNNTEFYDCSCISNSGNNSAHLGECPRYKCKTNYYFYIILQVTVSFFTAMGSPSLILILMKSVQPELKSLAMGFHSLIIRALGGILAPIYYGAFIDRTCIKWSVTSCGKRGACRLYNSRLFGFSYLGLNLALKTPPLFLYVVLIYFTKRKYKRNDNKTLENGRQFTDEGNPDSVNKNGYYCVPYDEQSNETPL

[3] = target: T4, Organic Anion-Transporting Polypeptide 1B1 (Homo sapiens, UniProt Q9Y6L6); assay: Positive control plated (adherent) assay, Corning TransportoCells OATP1B1*1a; format: in vitro ADME; details: PC: Plated Assay, Seeded at 250k/well (24-well), assay at 48 hours; 5 uM FMTX, 10 min
T4 construct: host or cells: HEK293 cells, gene delivered by electroporation
T4 sequence (Q9Y6L6 1-691): T1 sequence (Q9Y6L6 1-691)
Description: A positive control was provided via an adherent assay for characterizing the activity of a drug transporter protein in cryopreserved, Corning® TransportoCells™. Corning® TransportoCells™ transiently transfected with the gene OATP1B1*1a were obtained from Corning Life Sciences (Cat. No. 354859). In order to obtain suitable expression of the Organic Anion-Transporting Polypeptide 1B1 encoded by OATP1B1*1a, the Corning® TransportoCells™ were thawed, cultured, and harvested. […] The cells were cultured via plating in a 24-well PDL-Treated Plate (cell density of 250K cells/well; obtained from Corning Life Sciences) with plating medium for 48 hours at 37° C. and 8% CO2. The plating medium is detailed in Table 16. After 24 hours, cells were refed by 400 uL plating media supplemented with 5 mM sodium butyrate (obtained from Sigma). After 48 hours, cells were washed three times using 0.4 mL prewarmed HBSS (Corning). Then 0.3 mL substrate solution containing 5 uM FMTX were added to the cells and the cells were incubated for 10 min at 37 degree. After 10 min incubation time, the cells were washed 3 times using 0.4 mL cold HBSS. The cells were lysed and subjected to the BCA protein analysis and/or fluorescence analysis to characterize the activity of Organic Anion-Transporting Polypeptide 1B1.

[4] = HEK-293 cells overexpressing the transporter

Row | Compound | uptake of substrate (in words) (monkey Oatp1b1; [4]) | Km (monkey Oatp1b1; incubation of 5 minutes, Michaelis-Menten kinetics) | Km (OATP1B1*1a [1]) | UPTAKE ACTIVITY pOATP1B1 (OATP1B1; 293-F cells, 0.2 × 10^6 cells/well, after thaw from cryopreservation) | UPTAKE ACTIVITY pOATP1B1 (OATP1B1; 293-F in CD293, cryo, 24 hr post plating, 0.4×10^6 cells/well) | UPTAKE ACTIVITY pOATP1B1 (OATP1B1; 293-F in CD293, cryo, 72 hr post plating, 0.4×10^6 cells/well) | UPTAKE ACTIVITY pOATP1B1 (OATP1B1; 293-F in CD293, fresh, 48 hr post plating, 0.4×10^6 cells/well) | UPTAKE ACTIVITY pOATP1B1 (OATP1B1; FS293 cells, 0.2 × 10^6 cells/well, after thaw from cryopreservation) | UPTAKE ACTIVITY pOATP1B1 (OATP1B1; FS293 in Excell, cryo, 24 hr post plating, 0.4×10^6 cells/well) | UPTAKE ACTIVITY pOATP1B1 (OATP1B1; FS293 in Excell, cryo, 48 hr post plating, 0.4×10^6 cells/well) | UPTAKE ACTIVITY pOATP1B1 (OATP1B1; FS293 in Excell, cryo, 72 hr post plating, 0.4×10^6 cells/well) | Uptake Activity (OATP1B1; recovery time prior to cryopreservation 24 HOURS) | Uptake Activity (OATP1B1; recovery time prior to cryopreservation 30 MIN) | Km (OATP1B1*1a [2]) | Km (rat Oatp1b2) | uptake of substrate (in words) (rat Oatp1b2; [4]) | Uptake Activity OATP1B1 [3] | Uptake Ratio [3]
1 | C[C@]12CC[C@@H]3c4ccc(O)cc4CC[C@H]3[C@@H]1CC[C@@H]2O[C@@H]1O[C@H](C(=O)O)[C@@H](O)[C@H](O)[C@H]1O [E17βG] | significant uptake | 6.3 ± 1.4 µM | 6.3 µM | 20.2 pmol/mg/min | 27.4 pmol/mg/min | 9.9 pmol/mg/min | 15.4 (85%) pmol/mg/min | 10.5 pmol/mg/min | 36.4 pmol/mg/min | 10.0 pmol/mg/min | 6.6 pmol/mg/min | 0.59 pmol/mg/min | 5.78 pmol/mg/min | 6.2 µM | 9.6 ± 1.9 µM | significant uptake |  | 
2 | fluorescein methotrexate [FMTX] |  |  |  |  |  |  |  |  |  |  |  |  |  |  |  |  | 1.06 pmol/mg/min | 30.6
